# The source made the active and inactive calls. Rule as the data show it, for most assays here: actives have a measured EC50 and inactives only a lower limit.
# Assays:
# [1] = biological target: Alkaline phosphatase, placental type (Homo sapiens, UniProt P05187); assay: human placental alkaline phosphatase inhibition – biochemical, luminescence, confirmation (AID 1512); type: functional
# [2] = biological target: T1, Alkaline phosphatase, tissue-nonspecific isozyme (Homo sapiens, UniProt P05186); assay: potency against alkaline phosphatase TNAP – biochemical, luminescent, dose response, SAR follow-up (AID 1056)
# T1 sequence (P05186 whole entry): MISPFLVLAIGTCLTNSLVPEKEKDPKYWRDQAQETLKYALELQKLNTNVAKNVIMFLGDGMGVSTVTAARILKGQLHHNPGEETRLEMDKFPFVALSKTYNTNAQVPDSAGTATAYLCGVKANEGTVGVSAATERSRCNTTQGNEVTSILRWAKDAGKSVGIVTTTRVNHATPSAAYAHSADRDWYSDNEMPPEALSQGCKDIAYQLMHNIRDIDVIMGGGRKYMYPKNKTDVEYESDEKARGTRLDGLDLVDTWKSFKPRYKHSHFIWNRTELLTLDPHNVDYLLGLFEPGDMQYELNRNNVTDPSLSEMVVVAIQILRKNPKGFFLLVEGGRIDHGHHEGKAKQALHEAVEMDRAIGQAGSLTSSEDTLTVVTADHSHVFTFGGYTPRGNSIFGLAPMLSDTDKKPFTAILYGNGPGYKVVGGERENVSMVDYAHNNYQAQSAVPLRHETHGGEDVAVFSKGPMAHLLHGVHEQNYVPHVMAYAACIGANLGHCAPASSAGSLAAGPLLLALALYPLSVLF
# [3] = biological target: Intestinal-type alkaline phosphatase (Mus musculus, UniProt P24822); assay: PubChem AID 488875; type: functional
# Intestinal-type alkaline phosphatase (Mus musculus, UniProt P24822), sequence (P24822 whole entry): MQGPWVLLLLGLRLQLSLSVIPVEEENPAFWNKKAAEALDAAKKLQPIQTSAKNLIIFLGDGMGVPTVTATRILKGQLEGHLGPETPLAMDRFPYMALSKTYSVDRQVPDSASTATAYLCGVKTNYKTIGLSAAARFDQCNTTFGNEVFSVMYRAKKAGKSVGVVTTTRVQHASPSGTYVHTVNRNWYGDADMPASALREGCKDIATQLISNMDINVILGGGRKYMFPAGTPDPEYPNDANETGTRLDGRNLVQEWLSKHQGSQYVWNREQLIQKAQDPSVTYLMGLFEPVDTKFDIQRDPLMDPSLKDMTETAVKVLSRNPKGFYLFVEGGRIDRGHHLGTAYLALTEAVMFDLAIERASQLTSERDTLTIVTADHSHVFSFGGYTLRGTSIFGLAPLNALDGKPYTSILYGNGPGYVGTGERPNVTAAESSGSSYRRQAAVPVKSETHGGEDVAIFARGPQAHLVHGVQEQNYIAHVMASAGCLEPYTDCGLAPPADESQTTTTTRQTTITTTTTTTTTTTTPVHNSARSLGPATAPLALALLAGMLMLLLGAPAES
# [4] = biological target: T1, Alkaline phosphatase, tissue-nonspecific isozyme; assay: activation of tissue-nonspecific alkaline phosphatase – biochemical, TNAP isozyme, human IAP uHTS hits, selectivity assay for human IAP activator project, dose response (AID 488886); type: functional;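 also: potency of compounds raising TNAP activity as a selectivity check on IAP activators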
# [5] = biological target: T2, Intestinal-type alkaline phosphatase (Homo sapiens, UniProt P09923); assay: activation of human intestinal alkaline phosphatase – biochemical, luminescent, uHTS hits, set 2, dose response (AID 488817); type: functional;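 also: potency of activators that raise enzyme activity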
# T2 sequence (P09923 whole entry): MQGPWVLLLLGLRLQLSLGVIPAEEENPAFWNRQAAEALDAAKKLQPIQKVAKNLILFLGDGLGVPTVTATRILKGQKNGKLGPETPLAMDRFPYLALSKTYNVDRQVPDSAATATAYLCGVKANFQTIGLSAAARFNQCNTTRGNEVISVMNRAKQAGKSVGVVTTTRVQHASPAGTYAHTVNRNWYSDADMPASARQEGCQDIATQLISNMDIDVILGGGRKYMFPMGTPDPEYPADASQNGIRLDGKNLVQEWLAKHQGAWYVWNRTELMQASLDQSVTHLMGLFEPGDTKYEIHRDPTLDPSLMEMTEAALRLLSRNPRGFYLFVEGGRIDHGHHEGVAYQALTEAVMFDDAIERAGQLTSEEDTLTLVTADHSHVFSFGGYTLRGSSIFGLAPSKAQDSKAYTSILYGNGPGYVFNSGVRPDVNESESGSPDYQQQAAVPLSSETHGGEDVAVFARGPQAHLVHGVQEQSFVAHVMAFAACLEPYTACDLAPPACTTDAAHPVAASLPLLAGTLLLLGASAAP
# [6] = biological target: T2, Intestinal-type alkaline phosphatase; assay: human intestinal alkaline phosphatase activators, dose response, biochemical, luminescence, uHTS hits (AID 463120); type: functional
# [7] = biological target: T3, Rac GTPase-activating protein 1 (Homo sapiens, UniProt Q9H0H5); assay: blockers of MgcRacGAP-driven Rac1 GTP hydrolysis – biochemical, ADP Hunter fluorescence, primary and confirmatory, confirmation (AID 624330); type: functional
# T3 sequence (Q9H0H5 whole entry): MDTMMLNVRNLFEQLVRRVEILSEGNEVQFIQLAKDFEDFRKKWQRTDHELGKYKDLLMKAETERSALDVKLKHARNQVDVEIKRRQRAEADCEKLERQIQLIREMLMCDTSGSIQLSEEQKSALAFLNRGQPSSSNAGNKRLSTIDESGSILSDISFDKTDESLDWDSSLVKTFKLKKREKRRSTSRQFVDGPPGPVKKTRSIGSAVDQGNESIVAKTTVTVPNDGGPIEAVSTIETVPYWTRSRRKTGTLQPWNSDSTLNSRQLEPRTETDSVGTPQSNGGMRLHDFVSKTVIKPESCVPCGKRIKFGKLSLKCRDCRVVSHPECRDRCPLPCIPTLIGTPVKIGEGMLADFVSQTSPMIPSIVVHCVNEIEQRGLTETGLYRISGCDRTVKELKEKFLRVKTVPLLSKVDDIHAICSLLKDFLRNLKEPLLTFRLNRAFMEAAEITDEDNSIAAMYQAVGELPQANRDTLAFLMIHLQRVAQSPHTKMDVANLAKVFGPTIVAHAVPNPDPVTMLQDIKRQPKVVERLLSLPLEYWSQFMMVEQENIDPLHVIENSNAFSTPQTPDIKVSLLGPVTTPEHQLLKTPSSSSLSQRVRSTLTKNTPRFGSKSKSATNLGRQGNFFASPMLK
# BJ [8] = assay: cells; type: functional, cell-based; details: Homo sapiens
# BJ [9] = assay: BJ-TERT-LT-ST fibroblast viability loss – cell-based, RAS-independent, luminescence, dose response (AID 1935); type: functional; details: Homo sapiens;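 also: BJ fibroblasts immortalized with TERT plus LT and ST oncogenes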
# BJ [10] = assay: BJ-TERT fibroblast viability loss – cell-based, RAS-independent, luminescence, dose response (AID 1933); type: functional; details: Homo sapiens
# [11] = DRD fibroblast viability loss – cell-based, non-viral oncogenic, luminescence, dose response (AID 1934); type: functional; details: Homo sapiens
# [12] = HEK-293T viability loss after treatment – luminescence, T-cell screen hits, cytotoxicity control for TCR NF-kB inhibitor project, dose response (AID 489026); type: functional, cell-based;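 also: cells exposed to compound about 14 hours before the viability readout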
# SUMO E1/E2 = SUMO E1/E2 (Homo sapiens, UniProt P63279+Q9UBE0+Q9UBT2); assay: SAR analysis of SUMOylation using HTRF in an in-Vitro dose response assay. [Related pubchem assays (depositor defined):AID2006, AID2011, AID2018, AID2069, AID2658]; type: functional
# SUMO E1/E2, sequence (Q9UBE0 whole entry): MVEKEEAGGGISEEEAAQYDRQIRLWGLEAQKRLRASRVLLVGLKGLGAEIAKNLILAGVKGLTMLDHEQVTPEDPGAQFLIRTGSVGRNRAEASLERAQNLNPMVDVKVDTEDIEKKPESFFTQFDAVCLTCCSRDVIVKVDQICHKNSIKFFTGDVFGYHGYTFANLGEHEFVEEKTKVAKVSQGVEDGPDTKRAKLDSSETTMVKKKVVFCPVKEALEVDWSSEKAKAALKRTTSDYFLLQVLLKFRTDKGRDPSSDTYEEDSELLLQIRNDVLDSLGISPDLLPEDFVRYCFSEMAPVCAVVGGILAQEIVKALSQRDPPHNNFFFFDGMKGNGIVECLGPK
# SUMO E1/E2, sequence (Q9UBT2 whole entry): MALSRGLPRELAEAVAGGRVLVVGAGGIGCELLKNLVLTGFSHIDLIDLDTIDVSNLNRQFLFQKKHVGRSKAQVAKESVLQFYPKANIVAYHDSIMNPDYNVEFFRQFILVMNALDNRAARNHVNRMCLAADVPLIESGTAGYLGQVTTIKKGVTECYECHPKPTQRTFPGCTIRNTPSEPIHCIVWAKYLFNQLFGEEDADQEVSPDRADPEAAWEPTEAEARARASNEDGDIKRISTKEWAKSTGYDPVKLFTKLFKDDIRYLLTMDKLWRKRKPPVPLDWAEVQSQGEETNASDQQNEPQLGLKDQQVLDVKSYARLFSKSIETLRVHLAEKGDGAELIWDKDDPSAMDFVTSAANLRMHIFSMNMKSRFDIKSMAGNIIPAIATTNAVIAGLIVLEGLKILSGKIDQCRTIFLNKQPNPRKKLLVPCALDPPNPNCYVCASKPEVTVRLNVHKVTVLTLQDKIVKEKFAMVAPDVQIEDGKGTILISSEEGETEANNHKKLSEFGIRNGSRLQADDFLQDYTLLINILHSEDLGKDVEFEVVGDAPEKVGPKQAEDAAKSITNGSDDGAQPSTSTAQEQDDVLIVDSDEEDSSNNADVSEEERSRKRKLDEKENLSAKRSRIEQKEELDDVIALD
# SUMO E1/E2, sequence (P63279 whole entry): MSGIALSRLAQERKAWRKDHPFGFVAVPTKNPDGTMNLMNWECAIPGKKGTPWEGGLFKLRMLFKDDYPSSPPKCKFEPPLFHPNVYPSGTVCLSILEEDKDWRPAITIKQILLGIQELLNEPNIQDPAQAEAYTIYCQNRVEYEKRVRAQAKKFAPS
# [13] = biological target: Kappa-type opioid receptor (Homo sapiens, UniProt P41145); assay: SAR analysis of small molecule agonists of the kappa opioid receptor via a luminescent beta-arrestin assay - Set 3. [Related pubchem assays (depositor defined):AID1777, AID1785, AID1786, AID1966, AID2133, AID2136, AID2284, AID2500]; type: functional
# Kappa-type opioid receptor, sequence (P41145 whole entry): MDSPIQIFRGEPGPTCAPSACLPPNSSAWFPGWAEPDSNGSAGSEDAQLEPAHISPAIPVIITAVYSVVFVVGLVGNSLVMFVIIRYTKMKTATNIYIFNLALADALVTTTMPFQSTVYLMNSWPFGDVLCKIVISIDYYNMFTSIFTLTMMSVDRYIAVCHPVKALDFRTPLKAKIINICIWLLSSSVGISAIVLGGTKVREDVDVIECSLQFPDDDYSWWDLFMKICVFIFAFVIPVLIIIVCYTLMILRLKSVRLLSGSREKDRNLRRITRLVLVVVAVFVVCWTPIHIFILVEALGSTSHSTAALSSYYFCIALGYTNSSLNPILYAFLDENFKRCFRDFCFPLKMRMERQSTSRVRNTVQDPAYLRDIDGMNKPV
# [14] = HEK-293T cell viability reduction – luminescence, B-cell screen hits, cytotoxicity control for BCR NF-kB inhibitor project, dose response (AID 489021); type: functional, cell-based;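 also: HEK-293T cells carrying an NF-kB luciferase reporter; cells exposed to compound for about 14 hours before viability readout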
# [15] = luciferase reporter signal suppression in cells – H4 neuroglioma cells, luminescence, dose response (AID 1990); type: functional, cell-based
# [16] = NIH-3T3 fibroblast cytotoxicity, dose response, cytotoxicity control, cell-based, fluorescence, Alamar Blue, secondary assay (AID 2327); type: functional;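 also: NIH-3T3 mouse fibroblasts cultured with fluconazole at 8 µg/mL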
# [17] = Intein inhibitors as potential Tuberculosis drugs, a cytotoxicity screen. [Related pubchem assays (depositor defined):AID2221, AID2223, AID434968, AID435010, AID449749, AID449750, AID489010]; type: functional
# [18] = alpha-synuclein stem-loop luciferase translation blockers – H4 neuroglioma cells, luminescence, confirmation (AID 1988); type: functional, cell-based
# [19] = Luminescence Cell-Based Dose Response HTS to Identify Inhibitors of 5'UTR Stem-Loop Driven Prion Protein mRNA Translation in H4 Neuroglioblastoma Cells. [Related pubchem assays: 1827 (Project Summary), 1813 (Primary HTS)]; type: functional
# [20] = NIH3T3 cell viability loss – ATP luminescence, mouse fibroblasts, counter-screen, dose response (AID 2010); type: functional, cell-based;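 also: cells exposed to compound for about 90 hours before reading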
# [21] = biological target: T4, Heat shock factor protein 1 (Mus musculus, UniProt P38532); assay: decrease of HSF1-responsive luciferase luminescence – cell-based, NIH3T3, dose retest, confirmation (AID 2382); type: functional;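 also: NIH3T3 fibroblasts with HSF1-driven luciferase reporter stressed by proteasome inhibitor MG132; luminescence from HSF1-driven luciferase expression after 8 hours of MG132 stress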
# T4 sequence (P38532 whole entry): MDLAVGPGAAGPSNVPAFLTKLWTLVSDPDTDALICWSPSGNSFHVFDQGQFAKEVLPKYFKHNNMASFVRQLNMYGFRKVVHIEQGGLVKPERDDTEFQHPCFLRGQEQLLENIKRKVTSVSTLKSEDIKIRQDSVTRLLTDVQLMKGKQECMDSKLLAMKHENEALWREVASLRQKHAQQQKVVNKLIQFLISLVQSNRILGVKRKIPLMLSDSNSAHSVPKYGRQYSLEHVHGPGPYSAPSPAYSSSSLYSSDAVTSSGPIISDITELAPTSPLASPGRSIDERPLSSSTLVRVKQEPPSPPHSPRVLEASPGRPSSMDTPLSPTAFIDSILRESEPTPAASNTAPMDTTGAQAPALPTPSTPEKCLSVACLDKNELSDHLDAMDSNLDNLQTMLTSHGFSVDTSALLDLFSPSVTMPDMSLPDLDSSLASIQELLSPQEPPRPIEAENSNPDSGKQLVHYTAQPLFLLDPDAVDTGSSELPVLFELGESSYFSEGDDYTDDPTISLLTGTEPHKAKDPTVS
# [22] = Trypanosoma cruzi growth suppression in host cells – NIH3T3 host cells, beta-gal luminescence, confirmation (AID 2044); type: functional, cell-based;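 also: intracellular parasites grown in NIH/3T3 mouse fibroblasts as host cells; luminescent beta-galactosidase reporter signal from transgenic T. cruzi replicating inside host cells; inhibitors lower the luminescence signal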
# HEK293 = assay: EBV LMP1 TES2 canonical NF-kB signalling blockers – cell-based, HEK293, luciferase, cherry-pick, dose response (AID 588343); type: functional; details: Homo sapiens
# [23] = biological target: T5, Replicative DNA helicase DnaB (Mycobacterium tuberculosis, UniProt P9WMR3); assay: DnaB intein splicing inhibitors, dose response, biochemical, cell-free fluorescence (AID 449749); type: functional
# T5 sequence (P9WMR3 whole entry): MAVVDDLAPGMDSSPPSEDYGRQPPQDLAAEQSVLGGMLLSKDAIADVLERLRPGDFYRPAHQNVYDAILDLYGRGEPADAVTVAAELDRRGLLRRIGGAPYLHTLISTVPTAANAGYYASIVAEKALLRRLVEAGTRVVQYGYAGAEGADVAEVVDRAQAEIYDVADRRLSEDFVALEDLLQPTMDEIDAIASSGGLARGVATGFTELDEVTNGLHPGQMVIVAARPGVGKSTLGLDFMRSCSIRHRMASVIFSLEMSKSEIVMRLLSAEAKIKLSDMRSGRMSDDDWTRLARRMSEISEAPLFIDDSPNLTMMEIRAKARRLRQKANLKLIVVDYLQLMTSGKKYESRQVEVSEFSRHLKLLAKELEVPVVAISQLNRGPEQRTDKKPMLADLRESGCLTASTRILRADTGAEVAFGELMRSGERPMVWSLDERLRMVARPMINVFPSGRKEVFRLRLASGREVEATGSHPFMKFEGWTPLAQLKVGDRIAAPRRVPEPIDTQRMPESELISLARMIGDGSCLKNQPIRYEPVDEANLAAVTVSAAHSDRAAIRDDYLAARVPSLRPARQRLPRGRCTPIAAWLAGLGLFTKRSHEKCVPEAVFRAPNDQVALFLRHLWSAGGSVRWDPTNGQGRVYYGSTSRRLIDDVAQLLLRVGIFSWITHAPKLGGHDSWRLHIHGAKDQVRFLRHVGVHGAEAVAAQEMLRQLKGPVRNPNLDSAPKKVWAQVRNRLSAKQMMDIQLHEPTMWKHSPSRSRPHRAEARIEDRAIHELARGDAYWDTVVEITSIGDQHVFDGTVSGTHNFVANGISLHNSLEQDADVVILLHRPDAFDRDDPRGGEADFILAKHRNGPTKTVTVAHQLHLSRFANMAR
# Protein RecA = biological target: T6, Protein RecA (Mycobacterium tuberculosis, UniProt P9WHJ3); assay: Fluorescence Cell-Free Homogeneous Dose Retest to Identify Inhibitors of RecA-Intein Splicing Activity. [Related pubchem assays (depositor defined):AID2097, AID2223, AID489010, AID492950]; type: functional
# T6 sequence (P9WHJ3 whole entry): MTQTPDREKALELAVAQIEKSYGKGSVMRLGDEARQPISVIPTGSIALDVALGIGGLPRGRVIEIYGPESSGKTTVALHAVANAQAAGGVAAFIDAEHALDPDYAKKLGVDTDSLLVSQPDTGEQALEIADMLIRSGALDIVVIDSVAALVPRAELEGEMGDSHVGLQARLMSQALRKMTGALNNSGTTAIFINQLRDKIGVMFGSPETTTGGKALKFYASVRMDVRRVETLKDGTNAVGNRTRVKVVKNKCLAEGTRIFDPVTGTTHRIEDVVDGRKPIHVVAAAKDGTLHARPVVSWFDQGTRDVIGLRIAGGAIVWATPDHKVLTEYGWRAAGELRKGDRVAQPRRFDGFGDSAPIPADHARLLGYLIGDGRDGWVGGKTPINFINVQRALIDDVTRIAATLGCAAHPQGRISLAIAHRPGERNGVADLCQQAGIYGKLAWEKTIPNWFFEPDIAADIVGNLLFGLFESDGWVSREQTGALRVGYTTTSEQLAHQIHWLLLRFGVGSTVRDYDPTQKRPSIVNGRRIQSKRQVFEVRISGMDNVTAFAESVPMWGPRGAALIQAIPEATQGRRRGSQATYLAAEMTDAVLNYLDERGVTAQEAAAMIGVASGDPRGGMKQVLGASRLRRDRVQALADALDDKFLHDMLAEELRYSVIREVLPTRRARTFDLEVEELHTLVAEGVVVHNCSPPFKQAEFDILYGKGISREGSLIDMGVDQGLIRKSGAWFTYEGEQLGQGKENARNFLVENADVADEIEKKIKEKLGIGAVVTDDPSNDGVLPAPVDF
# 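For CC50 in this document: cells exposed to compound for 72 hours before luminescence readout.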
# Alkaline phosphatase, placental type, sequence (P05187 whole entry): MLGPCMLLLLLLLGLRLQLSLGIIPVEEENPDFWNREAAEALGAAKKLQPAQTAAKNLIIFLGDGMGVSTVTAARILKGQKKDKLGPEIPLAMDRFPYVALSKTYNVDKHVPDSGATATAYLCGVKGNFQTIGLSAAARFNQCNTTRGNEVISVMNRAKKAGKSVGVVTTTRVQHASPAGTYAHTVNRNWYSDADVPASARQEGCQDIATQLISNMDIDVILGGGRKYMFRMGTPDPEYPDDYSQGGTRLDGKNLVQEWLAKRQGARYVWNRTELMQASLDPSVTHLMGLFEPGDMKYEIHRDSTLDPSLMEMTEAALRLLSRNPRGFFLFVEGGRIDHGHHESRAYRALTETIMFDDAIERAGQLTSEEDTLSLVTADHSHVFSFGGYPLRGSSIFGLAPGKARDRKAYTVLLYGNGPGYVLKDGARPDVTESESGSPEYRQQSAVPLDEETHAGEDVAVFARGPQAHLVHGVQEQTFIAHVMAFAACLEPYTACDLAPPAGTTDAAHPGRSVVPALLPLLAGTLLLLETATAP
smiles,measurement,setting,value
Cc1cc(C)c(C#N)c(SCC(=O)c2ccc3c(c2)OCO3)n1,IC50,[1],> 100 µM (inactive)
same,IC50,[2],> 100 µM (inactive)
Cc1ccccc1CN1CCC(n2nccc2NC(=O)CCCc2ccccc2)CC1,EC50,[3],61 µM (active)
same,EC50,[4],63.4 µM (active)
same,EC50,[5],64.1 µM (active)
same,EC50,[6],70.7 µM (active)
C=CCn1c(SCC(=O)c2ccc(O)c(O)c2)nnc1-c1cccc(Cl)c1,IC50,[7],79.5 µM (active)
same,IC50,[1],6.62 µM (active)
same,IC50,[2],20.7 µM (active)
O=C(Cc1ccc(-c2ccccc2)cc1)NCc1ccccc1,EC50,BJ [8],13.6 µM (inconclusive)
same,EC50,BJ [9],0.279 µM (inconclusive)
same,EC50,BJ [10],0.385 µM (active)
same,EC50,[11],0.489 µM (active)
same,IC50,[12],> 80 µM (inactive)
COC(=O)c1ccc2c(c1)C1C=CCC1C(c1ccc(C(=O)O)cc1)N2 (stereo not drawn),IC50,SUMO E1/E2,> 100 µM (inactive)
COc1ccc(Cn2c(SCc3ccc(Cl)c(C(F)(F)F)c3)nnc2-c2ccccn2)cc1,EC50,[13],18.8 µM (inactive)
O=C(CCl)N(c1ccc(Cl)cc1)c1c[nH]c2ccccc12,IC50,[14],15 µM (active)
same,EC50,[15],13.2 µM (active)
same,EC50,[16],4.07 µM (inconclusive)
same,CC50,[17],0.86 µM (active)
same,EC50,[18],8.46 µM (active)
same,EC50,[19],15.5 µM (active)
same,EC50,[20],< 6 µM (inconclusive)
same,EC50,[21],2.72 µM (active)
same,EC50,[22],0.412 µM (active)
same,AC50,HEK293,12.5 µM (active)
same,AC50,[23],2.46 µM (active)
same,EC50,Protein RecA,0.195 µM (active)
